Patent publication US20260176300A1, “N-ARYLPYRAZOLE NOD2 AGONISTS AS PROMOTERS OF IMMUNE CHECKPOINT INHIBITOR THERAPY” (THE SCRIPPS RESEARCH INSTITUTE, priority 2022, published 2026)

Tests used:
NOD2 = target: T1, NOD2 (Homo sapiens, UniProt Q9HC29); assay: NOD2-HEK-Blue NF-κB reporter cell activation assay (NOD2-expressing HEK-293T cells); format: cell-based; conditions: for EC50: calculated, three-parameter dose-response nonlinear regression, read-out: pEC50 (μM), dose-dependent activation of NOD2-expressing HEK-293T cells (converted)
T1 construct: host or cells: HEK-293T-derived HEK-Blue NF-kB/SEAP reporter cells
In short: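 HEK-Blue NOD2 reporter cells in HEK-Blue detection medium were exposed to compounds for 8-10 h at 37° C. (or 16 h in complete DMEM, then QUANTI-Blue for 2-4 h). Secreted alkaline phosphatase read by absorbance at 630 nm; pEC50 from three-parameter dose-response nonlinear regression.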

[1] = tested on: intratumoral immune cells; assay: Single cell transcriptomic profiling of intratumoral immune cells; format: in vivo, mice; conditions: tumors treated with anti-PD-L1 and compound
Text: N-arylpyrazole NOD2 agonist enhances intratumoral immune responses in vivo. The anti-tumor mechanism of action of the N-arylpyrazole NOD2 agonist in vivo was then further characterized. Infiltrating leukocytes from tumors treated with anti-PD-L1 and either TT030 or TT030-ent were harvested via cell sorting and subjected to single cell transcriptomic profiling (FIG. 4A and FIG. 8). After assignment of cell clusters using well-defined markers, the overall composition of intratumoral immune cells were examined by comparing the relative proportions of each cell cluster. […] In fact, overall expression of both Ifng and Gzmb were elevated in the TT030 sample compared to the enantiomer control (FIG. 9B), indicating heighted CD8^+ T cell activation and effector function. […] To better characterize changes to downstream signaling caused by TT030, differential gene expression and gene set enrichment analyses were performed.
FIG. 4(A-E). NOD2 agonist TT030 remodels intratumoral immune cell composition and elicits broad inflammatory signaling. A, Uniform manifold approximation and projection (UMAP) reduction of single intratumoral immune cells harvested from α-PD-L1 and TT030- and TT030-ent-treated tumors. B-C, Heatmap and quantification of the relative composition of intratumoral immune cell types divided by clusters. D, Quantification of the number of clusters that were enriched for individual Molecular Signature Database (MSigDB) hallmark gene sets. E, Bubble plot for enrichment of curated REACTOME gene sets involving NF-κB or interleukin 1 across cell clusters. For relative composition, absolute cell counts were analyzed by Pearson's chi-square test for count data with Holm's correction for multiple comparisons; exact P values are given. […] NOD activation assays were analyzed using a one-way ANOVA with Dunnett's multiple comparisons test compared to the DMSO control.
FIG. 9(A-B). […] QQ plots were analyzed using a two-sided Wilcoxon rank-sum test; exact P values are given.

T1 sequence (Q9HC29 whole entry): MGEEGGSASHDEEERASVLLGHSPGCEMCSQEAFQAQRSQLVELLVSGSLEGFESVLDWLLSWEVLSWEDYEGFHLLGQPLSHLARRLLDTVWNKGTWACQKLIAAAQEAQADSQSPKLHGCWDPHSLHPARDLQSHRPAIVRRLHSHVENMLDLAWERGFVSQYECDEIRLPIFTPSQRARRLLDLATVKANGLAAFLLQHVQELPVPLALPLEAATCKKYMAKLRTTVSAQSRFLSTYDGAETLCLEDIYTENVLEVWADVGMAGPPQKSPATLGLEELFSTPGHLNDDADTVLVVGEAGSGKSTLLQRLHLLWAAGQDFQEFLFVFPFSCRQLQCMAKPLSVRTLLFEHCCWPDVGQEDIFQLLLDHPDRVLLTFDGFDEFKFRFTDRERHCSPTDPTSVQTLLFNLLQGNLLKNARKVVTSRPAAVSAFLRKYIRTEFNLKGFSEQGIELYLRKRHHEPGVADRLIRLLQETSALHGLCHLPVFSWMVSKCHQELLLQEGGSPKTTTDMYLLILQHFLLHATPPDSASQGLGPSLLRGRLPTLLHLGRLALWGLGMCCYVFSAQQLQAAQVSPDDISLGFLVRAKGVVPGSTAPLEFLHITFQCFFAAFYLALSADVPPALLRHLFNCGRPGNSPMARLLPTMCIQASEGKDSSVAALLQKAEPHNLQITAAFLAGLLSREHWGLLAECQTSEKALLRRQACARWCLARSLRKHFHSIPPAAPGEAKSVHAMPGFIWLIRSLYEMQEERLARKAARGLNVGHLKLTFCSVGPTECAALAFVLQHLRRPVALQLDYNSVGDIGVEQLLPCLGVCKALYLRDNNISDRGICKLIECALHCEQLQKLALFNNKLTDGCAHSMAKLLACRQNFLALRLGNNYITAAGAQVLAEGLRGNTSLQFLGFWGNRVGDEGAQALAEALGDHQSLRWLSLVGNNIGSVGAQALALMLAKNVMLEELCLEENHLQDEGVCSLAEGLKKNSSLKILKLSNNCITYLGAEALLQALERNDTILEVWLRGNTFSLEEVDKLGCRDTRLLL

EC50 (NOD2) | lipophilic ligand efficiency (LLE) (NOD2; calculated pEC50 vs. clogP, FIG. 2G) | Compound | Inflammatory, immune activation and metabolic pathways (IFNα, IFNγ response, NF-κB signaling), gene set enrichment [1] | Amount of T cell cluster expressing Cd8a, Ifng, Gzmb and Mki67 ([1]; vs. TT030-ent) | Overall expression of Ifng and Gzmb ([1]; vs. enantiomer control)
0.126 µM | – | CC(=O)N[C@H]1C(O)O[C@H](CO)[C@@H](O)[C@@H]1O[C@H](C)C(=O)N[C@@H](C)C(=O)N[C@H](CCC(=O)O)C(N)=O (stereo partly drawn) [MDP, (4R)-4-((2S)-2-((2R)-2-(((3R,4R,5S,6R)-3-acetamido-2,5-dihydroxy-6-(hydroxymethyl)tetrahydro-2H-pyran-4-yl)oxy)propanamido)propanamido)-5-amino-5-oxopentanoic acid, reference compound] | – | – | –
0.251 µM | 6.81 | CCOC(=O)CC[C@@H](NC(=O)[C@@H](NC(=O)c1c(C)nn(-c2cc[nH]c(=O)c2)c1C)C(C)C)C(=O)OCC [TT030, Diethyl (3,5-dimethyl-1-(2-oxo-1,2-dihydropyridin-4-yl)-1H-pyrazole-4-carbonyl)-L-valyl-D-glutamate] | upregulated | significant increase | elevated
